According to PubChem BioAssay (NCI):
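Method: 48-hour compound exposure of cells in 96-well plates, five concentrations, linear interpolation of endpoints. At the TGI there is no net growth.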

What was measured:
Assay in all cases: inhibition of tumour cell growth, NCI panel, 48 h
[1] = system: 786-0 renal
[2] = system: A498 renal
[3] = system: A549 NSCLC
[4] = system: ACHN renal
[5] = system: BT-549 breast
[6] = system: CAKI-1 renal
[7] = system: CCRF-CEM leukemia
[8] = system: COLO 205 colon
[9] = system: DU-145 prostate
[10] = system: EKVX NSCLC
[11] = system: HCC-2998 colon
[12] = system: HCT-116 colon
[13] = system: HCT-15 colon
[14] = system: HL-60(TB) leukemia
[15] = system: HOP-62 NSCLC
[16] = system: HOP-92 NSCLC
[17] = system: HS 578T breast
[18] = system: HT29 colon
[19] = system: IGROV1 ovarian
[20] = system: K-562 leukemia
[21] = system: KM12 colon
[22] = system: LOX IMVI melanoma
[23] = system: M14 melanoma
[24] = system: MALME-3M melanoma
[25] = system: MCF7 breast
[26] = system: MDA-MB-231 breast
[27] = system: MDA-MB-435
[28] = system: MDA-N
[29] = system: MOLT-4 leukemia
[30] = system: NCI-H226 lung
[31] = system: NCI-H23 lung
[32] = system: NCI-H460 lung
[33] = system: NCI/ADR-RES ovarian
[34] = system: OVCAR-3 ovarian
[35] = system: OVCAR-4 ovarian
[36] = system: OVCAR-5 ovarian
[37] = system: OVCAR-8 ovarian
[38] = system: PC-3 prostate
[39] = system: RPMI-8226 leukemia
[40] = system: RXF 393 renal
[41] = system: SF-268 CNS
[42] = system: SF-295 CNS
[43] = system: SK-MEL-2 melanoma
[44] = system: SK-MEL-28 melanoma
[45] = system: SK-MEL-5 melanoma
[46] = system: SK-OV-3 ovarian
[47] = system: SN12C renal
[48] = system: SNB-19 CNS
[49] = system: SNB-75 CNS
[50] = system: SW-620 colon
[51] = system: T-47D breast
[52] = system: TK-10 renal
[53] = system: U251 CNS
[54] = system: UACC-257 melanoma
[55] = system: UACC-62 melanoma
[56] = system: UO-31 renal
[57] = system: NCI-H522 lung
[58] = system: SF-539 CNS

**Q.** Which TGI [1] does the source give for `Cc1ccc(C2(c3ccc(Cl)cc3)c3ccccc3C3=NCCN32)cc1` (stereo not given) here?
**A.** 26.9 µM

**Q.** And the TGI [2]?
**A.** 20 µM

**Q.** What about the TGI [3] of the same compound?
**A.** 25.3 µM

**Q.** And the TGI [4]?
**A.** 19.8 µM

**Q.** What about the TGI [5] of the same compound?
**A.** 25.9 µM

**Q.** What about the TGI [6] of the same compound?
**A.** 37.9 µM

**Q.** What about the TGI [7] of the same compound?
**A.** 19.5 µM

**Q.** What about the TGI [8] of the same compound?
**A.** 18.7 µM

**Q.** What about the TGI [9] of the same compound?
**A.** 26.1 µM

**Q.** What about the TGI [10] of the same compound?
**A.** 28.9 µM

**Q.** What about the TGI [11] of the same compound?
**A.** 18.8 µM

**Q.** What about the TGI [12] of the same compound?
**A.** 10.1 µM

**Q.** And the TGI [13]?
**A.** 24 µM

**Q.** What about the TGI [14] of the same compound?
**A.** 23.9 µM

**Q.** What about the TGI [15] of the same compound?
**A.** 23.8 µM

**Q.** What about the TGI [16] of the same compound?
**A.** 18.1 µM

**Q.** And the TGI [17]?
**A.** 33.4 µM

**Q.** What about the TGI [18] of the same compound?
**A.** 14.6 µM

**Q.** What about the TGI [19] of the same compound?
**A.** 14.9 µM

**Q.** What about the TGI [20] of the same compound?
**A.** > 100 µM

**Q.** And the TGI [21]?
**A.** 22.8 µM

**Q.** And the TGI [22]?
**A.** 27.7 µM

**Q.** And the TGI [23]?
**A.** 16.2 µM

**Q.** And the TGI [24]?
**A.** 16 µM

**Q.** And the TGI [25]?
**A.** 20.5 µM

**Q.** And the TGI [26]?
**A.** 19.4 µM

**Q.** What about the TGI [27] of the same compound?
**A.** 10.1 µM

**Q.** And the TGI [28]?
**A.** 12.4 µM

**Q.** What about the TGI [29] of the same compound?
**A.** 20.9 µM

**Q.** And the TGI [30]?
**A.** 35.6 µM

**Q.** And the TGI [31]?
**A.** 32 µM

**Q.** What about the TGI [32] of the same compound?
**A.** 20.7 µM

**Q.** What about the TGI [33] of the same compound?
**A.** 24.9 µM

**Q.** What about the TGI [34] of the same compound?
**A.** 24.9 µM

**Q.** And the TGI [35]?
**A.** 16.9 µM

**Q.** And the TGI [36]?
**A.** 26 µM

**Q.** And the TGI [37]?
**A.** 29.4 µM

**Q.** What about the TGI [38] of the same compound?
**A.** 21.6 µM

**Q.** What about the TGI [39] of the same compound?
**A.** 28.9 µM

**Q.** And the TGI [40]?
**A.** 10.9 µM

**Q.** And the TGI [41]?
**A.** 31.5 µM

**Q.** What about the TGI [42] of the same compound?
**A.** 20.6 µM

**Q.** And the TGI [43]?
**A.** 28 µM

**Q.** What about the TGI [44] of the same compound?
**A.** 35.9 µM

**Q.** And the TGI [45]?
**A.** 23.2 µM

**Q.** And the TGI [46]?
**A.** 20.7 µM

**Q.** What about the TGI [47] of the same compound?
**A.** 29.7 µM

**Q.** What about the TGI [48] of the same compound?
**A.** 28.2 µM

**Q.** What about the TGI [49] of the same compound?
**A.** 24.9 µM

**Q.** And the TGI [50]?
**A.** 32.6 µM

**Q.** And the TGI [51]?
**A.** 39.2 µM

**Q.** And the TGI [52]?
**A.** 18.5 µM

**Q.** What about the TGI [53] of the same compound?
**A.** 29 µM

**Q.** What about the TGI [54] of the same compound?
**A.** 20.7 µM

**Q.** What about the TGI [55] of the same compound?
**A.** 20 µM

**Q.** What about the TGI [56] of the same compound?
**A.** 18.1 µM

**Q.** How did the TGI [1] turn out when `CCNC(=O)c1cc(Cl)ccc1NC(=O)C12CC3CC(CC(C3)C1)C2` was run?
**A.** 61 µM

**Q.** What about the TGI [2] of the same compound?
**A.** > 100 µM

**Q.** What about the TGI [3] of the same compound?
**A.** > 100 µM

**Q.** What about the TGI [4] of the same compound?
**A.** > 100 µM

**Q.** What about the TGI [5] of the same compound?
**A.** > 100 µM

**Q.** What about the TGI [6] of the same compound?
**A.** > 100 µM

**Q.** And the TGI [7]?
**A.** > 100 µM

**Q.** And the TGI [8]?
**A.** > 100 µM

**Q.** What about the TGI [9] of the same compound?
**A.** 88.9 µM

**Q.** And the TGI [10]?
**A.** 60.6 µM

**Q.** What about the TGI [12] of the same compound?
**A.** > 100 µM

**Q.** And the TGI [13]?
**A.** > 100 µM

**Q.** What about the TGI [14] of the same compound?
**A.** > 100 µM

**Q.** What about the TGI [15] of the same compound?
**A.** > 100 µM

**Q.** What about the TGI [16] of the same compound?
**A.** > 100 µM

**Q.** What about the TGI [17] of the same compound?
**A.** > 100 µM

**Q.** And the TGI [18]?
**A.** 37.3 µM

**Q.** What about the TGI [19] of the same compound?
**A.** > 100 µM

**Q.** And the TGI [20]?
**A.** > 100 µM

**Q.** What about the TGI [21] of the same compound?
**A.** > 100 µM

**Q.** And the TGI [22]?
**A.** > 100 µM

**Q.** What about the TGI [23] of the same compound?
**A.** > 100 µM

**Q.** What about the TGI [24] of the same compound?
**A.** > 100 µM

**Q.** What about the TGI [25] of the same compound?
**A.** > 100 µM

**Q.** And the TGI [26]?
**A.** > 100 µM

**Q.** And the TGI [27]?
**A.** > 100 µM

**Q.** What about the TGI [28] of the same compound?
**A.** 70.9 µM

**Q.** And the TGI [29]?
**A.** > 100 µM

**Q.** And the TGI [30]?
**A.** > 100 µM

**Q.** What about the TGI [31] of the same compound?
**A.** > 100 µM

**Q.** And the TGI [32]?
**A.** > 100 µM

**Q.** And the TGI [57]?
**A.** > 100 µM

**Q.** What about the TGI [33] of the same compound?
**A.** > 100 µM

**Q.** And the TGI [34]?
**A.** > 100 µM

**Q.** What about the TGI [35] of the same compound?
**A.** > 100 µM

**Q.** And the TGI [36]?
**A.** > 100 µM

**Q.** What about the TGI [37] of the same compound?
**A.** > 100 µM

**Q.** What about the TGI [38] of the same compound?
**A.** > 100 µM

**Q.** And the TGI [39]?
**A.** 86.7 µM

**Q.** And the TGI [40]?
**A.** 43.9 µM

**Q.** What about the TGI [41] of the same compound?
**A.** > 100 µM

**Q.** And the TGI [42]?
**A.** > 100 µM

**Q.** What about the TGI [58] of the same compound?
**A.** > 100 µM

**Q.** What about the TGI [43] of the same compound?
**A.** 81.9 µM

**Q.** And the TGI [44]?
**A.** > 100 µM

**Q.** What about the TGI [45] of the same compound?
**A.** 76.1 µM

**Q.** And the TGI [47]?
**A.** > 100 µM

**Q.** What about the TGI [48] of the same compound?
**A.** > 100 µM

**Q.** What about the TGI [50] of the same compound?
**A.** > 100 µM

**Q.** And the TGI [51]?
**A.** > 100 µM

**Q.** And the TGI [52]?
**A.** > 100 µM

**Q.** And the TGI [53]?
**A.** > 100 µM

**Q.** And the TGI [54]?
**A.** > 100 µM

**Q.** And the TGI [56]?
**A.** 56.4 µM
